From patent publication US6642392B1 (priority 1997, dated 2003)
Like-named read-outs stand apart in the source and are kept apart here.

Columns and labels:
Type in all cases: in vivo
[1] = system: Eiysiphe graminis f. sp. tritici; assay: Test A: wheat powdery mildew, preventive spray on wheat seedlings; details: for Test A disease control rating: wheat powdery mildew; for Test A disease control rating (100 = 100% disease control, 0 = no disease control): wheat seedlings sprayed to run-off, inoculated the following day, rating relative to controls, unmarked compounds (standard test rate)
How it was run: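 Preventive test: seedlings inoculated with powdery mildew spores one day after run-off spraying of a suspension. Ratings after 7 days in a 20° C growth chamber express percent disease control versus controls.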

[2] = system: Puccinia recondita; assay: Test B: wheat leaf rust, preventive spray on wheat seedlings; details: for Test B disease control rating: wheat leaf rust; for Test B disease control rating (100 = 100% disease control, 0 = no disease control): wheat seedlings sprayed to run-off, inoculated the following day, rating relative to controls, unmarked compounds (standard test rate)
How it was run: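 Preventive test: P. recondita spores were applied one day after a run-off spray of compound suspension on wheat seedlings. Plants had 24 h at 20 °C in saturated air plus 6 days in a 20 °C growth chamber. Scoring is % disease control (100 = full) relative to controls.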

[3] = system: Pyricularia oryzae; details: for Test C disease control rating: rice blast; for Test C disease control rating (100 = 100% disease control, 0 = no disease control): rice seedlings sprayed to run-off, inoculated the following day, rating relative to controls, unmarked compounds (standard test rate)
[4] = system: Phytophthora infestans; details: for Test D disease control rating: tomato late blight; for Test D disease control rating (100 = 100% disease control, 0 = no disease control): tomato seedlings sprayed to run-off, inoculated the following day, rating relative to controls, unmarked compounds (standard test rate)
[5] = system: Botrytis cinerea; assay: Test E: gray mold, preventive spray on cucumber seedlings; details: for Test E disease control rating: gray mold on cucumber; for Test E disease control rating (100 = 100% disease control, 0 = no disease control): cucumber seedlings sprayed to run-off, inoculated the following day, rating relative to controls, unmarked compounds (standard test rate)
How it was run: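 Preventive spray on cucumber seedlings used a suspension (3% acetone, 250 ppm Trem 014), applied to run-off one day before inoculation with Botrytis cinerea spores. Plants were held 48 h at 20° C in saturated air, then 5 days at 20° C. Percent disease control was scored relative to untreated plants.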

[6] = 100 = 100% disease control, 0 = no control relative to controls, unmarked entries (standard test concentration)
[7] = 100 = 100% disease control, 0 = no control, unmarked entries (standard test concentration)

| Structure (SMILES) | Test A disease control rating [1, 6] [%] | Test B disease control rating [2, 7] [%] | Test C disease control rating [3, 7] [%] | Test D disease control rating [4, 7] [%] | Test E disease control rating [5, 7] [%] | also measured |
| --- | --- | --- | --- | --- | --- | --- |
| CCC1(C(=O)NC(C)COc2ccc(F)cc2)C(C)C1(Cl)Cl (mixture of isomers) [80b] |  |  |  |  |  | Test A disease control rating ([1]; tested at 40 ppm): 83%; Test B disease control rating ([2]; tested at 40 ppm): 0%; Test C disease control rating ([3]; tested at 40 ppm): 97%; Test D disease control rating ([4]; tested at 40 ppm): 0%; Test E disease control rating ([5]; tested at 40 ppm): 0% |
| CCC1(C(=O)NC(C)COc2ccccc2I)C(C)C1(Cl)Cl (mixture of isomers) [87b] |  |  |  |  |  | Test A disease control rating ([1]; tested at 40 ppm): 52%; Test B disease control rating ([2]; tested at 40 ppm): 0%; Test C disease control rating ([3]; tested at 40 ppm): 0%; Test D disease control rating ([4]; tested at 40 ppm): 0%; Test E disease control rating ([5]; tested at 40 ppm): 0% |
| Cc1c(Cl)cc(C#N)n1CCC(C)NC(=O)C(C#N)C(C)C(C)(C)C (mixture of isomers) [compound 72] | 0 | 0 | 91 | 0 | 0 |  |
| CC(COc1c(F)ccc(F)c1C#N)NC(=O)C(C#N)C(C)C(C)(C)C (mixture of isomers) [compound 279] |  |  |  |  |  | Test A disease control rating (100 = 100% disease control, 0 = no disease control) [1]: 56%; Test B disease control rating (100 = 100% disease control, 0 = no disease control) [2]: 0%; Test C disease control rating (100 = 100% disease control, 0 = no disease control) [3]: 0%; Test D disease control rating (100 = 100% disease control, 0 = no disease control) [4]: 0%; Test E disease control rating (100 = 100% disease control, 0 = no disease control) [5]: 0% |
| C[C@H](COc1ccc(F)c(Cl)c1)NC(=O)C(C#N)C(C)(C)C (single isomer, unassigned) [183a] | 0 | 28 | 86 | 35 | 0 |  |
| C[C@H](COc1cccc(Cl)c1Cl)NC(=O)C(C#N)C(C)(C)C (single isomer, unassigned) [31a] | 62 | 68 | 74 | 51 | 0 |  |
| CCc1cccc(OCC(C)NC(=O)C2(CC)C(C)C2(Cl)Cl)c1 (stereo not shown) [compound 240] |  |  |  |  |  | Test A disease control rating (100 = 100% disease control, 0 = no disease control) [1]: 63%; Test B disease control rating (100 = 100% disease control, 0 = no disease control) [2]: 0%; Test C disease control rating (100 = 100% disease control, 0 = no disease control) [3]: 94%; Test D disease control rating (100 = 100% disease control, 0 = no disease control) [4]: 96%; Test E disease control rating (100 = 100% disease control, 0 = no disease control) [5]: 0% |
| CC(COc1cc(I)ccc1C#N)NC(=O)C(C#N)C(C)(C)C (mixture of isomers) [compound 46] | 0 | 0 | 53 | 66 | 0 |  |
| CC(COc1ccccc1Br)NC(=O)C(C#N)C(C)(C)C (mixture of isomers) [8a] | 0 | 0 | 85 | 0 | 7 |  |
| CC(C)(C)C(C#N)C(=O)NC/C=C/c1cccc(Cl)c1 (racemic) [compound 180] | 61 | 0 | 74 | 76 | 0 |  |
| CC(COc1cccc(Cl)c1)NC(=O)C(C#N)C(C)(C)C (single isomer, unassigned) [6c] | 0 | 0 | 97 | 9 | 0 |  |
| C=CC(C)(C)C(C#N)C(=O)NC(C)COc1cc(F)ccc1OC(F)F (mixture of isomers) [compound 294] |  |  |  |  |  | Test A disease control rating (100 = 100% disease control, 0 = no disease control) [1]: 0%; Test B disease control rating (100 = 100% disease control, 0 = no disease control) [2]: 0%; Test C disease control rating (100 = 100% disease control, 0 = no disease control) [3]: 99%; Test D disease control rating (100 = 100% disease control, 0 = no disease control) [4]: 24%; Test E disease control rating (100 = 100% disease control, 0 = no disease control) [5]: 0% |
| CCC1(C(=O)NC(C)COc2ccccc2OC(F)(F)C(F)F)C(C)C1(Cl)Cl (mixture of isomers) [compound 90] | 84 | 0 | 32 | 0 | 0 |  |
| CC(COc1ccccc1F)NC(=O)C(C#N)C(C)C(C)(C)C (mixture of isomers) [compound 57] |  |  |  |  |  | Test A disease control rating ([1]; tested at 40 ppm): 91%; Test B disease control rating ([2]; tested at 40 ppm): 0%; Test C disease control rating ([3]; tested at 40 ppm): 85%; Test D disease control rating ([4]; tested at 40 ppm): 0%; Test E disease control rating ([5]; tested at 40 ppm): 0% |
